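Exposure lasted 48 hours, with cells grown in 96-well plates and compounds tested at five concentrations. The concentration for full growth arrest is given as TGI.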
Tests used:
Experiment in all cases: growth of human tumour cells (NCI), 48 h
RXF 393 renal = tested on: RXF 393 renal
HCT-15 colon = tested on: HCT-15 colon
SK-OV-3 ovarian = tested on: SK-OV-3 ovarian
T-47D breast = tested on: T-47D breast
SF-295 CNS = tested on: SF-295 CNS
CCRF-CEM leukemia = tested on: CCRF-CEM leukemia
EKVX NSCLC = tested on: EKVX NSCLC
MDA-N = tested on: MDA-N
SW-620 colon = tested on: SW-620 colon
MDA-MB-231 breast = tested on: MDA-MB-231 breast
A498 renal = tested on: A498 renal
BT-549 breast = tested on: BT-549 breast
U251 CNS = tested on: U251 CNS
SK-MEL-5 melanoma = tested on: SK-MEL-5 melanoma
DU-145 prostate = tested on: DU-145 prostate
HT29 colon = tested on: HT29 colon
SK-MEL-2 melanoma = tested on: SK-MEL-2 melanoma
LOX IMVI melanoma = tested on: LOX IMVI melanoma
A549 NSCLC = tested on: A549 NSCLC
OVCAR-5 ovarian = tested on: OVCAR-5 ovarian
RPMI-8226 leukemia = tested on: RPMI-8226 leukemia
COLO 205 colon = tested on: COLO 205 colon
IGROV1 ovarian = tested on: IGROV1 ovarian
UACC-62 melanoma = tested on: UACC-62 melanoma
UO-31 renal = tested on: UO-31 renal
SN12C renal = tested on: SN12C renal
HL-60(TB) leukemia = tested on: HL-60(TB) leukemia
SNB-19 CNS = tested on: SNB-19 CNS
SR leukemia = tested on: SR leukemia
SF-539 CNS = tested on: SF-539 CNS
NCI-H23 lung = tested on: NCI-H23 lung
MALME-3M melanoma = tested on: MALME-3M melanoma
OVCAR-4 ovarian = tested on: OVCAR-4 ovarian
SF-268 CNS = tested on: SF-268 CNS
OVCAR-3 ovarian = tested on: OVCAR-3 ovarian
OVCAR-8 ovarian = tested on: OVCAR-8 ovarian
NCI-H460 lung = tested on: NCI-H460 lung
SNB-75 CNS = tested on: SNB-75 CNS
HOP-92 NSCLC = tested on: HOP-92 NSCLC
MOLT-4 leukemia = tested on: MOLT-4 leukemia
HOP-62 NSCLC = tested on: HOP-62 NSCLC
TK-10 renal = tested on: TK-10 renal
MCF7 breast = tested on: MCF7 breast
MDA-MB-435 = tested on: MDA-MB-435
SK-MEL-28 melanoma = tested on: SK-MEL-28 melanoma
NCI-H522 lung = tested on: NCI-H522 lung
NCI/ADR-RES ovarian = tested on: NCI/ADR-RES ovarian
ACHN renal = tested on: ACHN renal
PC-3 prostate = tested on: PC-3 prostate
UACC-257 melanoma = tested on: UACC-257 melanoma
NCI-H226 lung = tested on: NCI-H226 lung
HCT-116 colon = tested on: HCT-116 colon
HCC-2998 colon = tested on: HCC-2998 colon
KM12 colon = tested on: KM12 colon
CAKI-1 renal = tested on: CAKI-1 renal
M14 melanoma = tested on: M14 melanoma
HS 578T breast = tested on: HS 578T breast
786-0 renal = tested on: 786-0 renal
K-562 leukemia = tested on: K-562 leukemia

CN(C)c1ccc(C2SCC(=O)N2c2nc3cc4sc(N5C(=O)CSC5c5ccc(N(C)C)cc5)nc4cc3s2)cc1 (stereo not drawn)
TGI (RXF 393 renal): > 100 µM
TGI (HCT-15 colon): > 100 µM
TGI (SK-OV-3 ovarian): > 100 µM
TGI (T-47D breast): > 100 µM
TGI (SF-295 CNS): > 100 µM
TGI (CCRF-CEM leukemia): > 100 µM
TGI (EKVX NSCLC): > 100 µM
TGI (MDA-N): > 100 µM
TGI (SW-620 colon): > 100 µM
TGI (MDA-MB-231 breast): > 100 µM
TGI (A498 renal): > 100 µM
TGI (BT-549 breast): > 100 µM
TGI (U251 CNS): > 100 µM
TGI (SK-MEL-5 melanoma): > 100 µM
TGI (DU-145 prostate): > 87.2 µM
TGI (HT29 colon): > 100 µM
TGI (SK-MEL-2 melanoma): > 100 µM
TGI (LOX IMVI melanoma): > 100 µM
TGI (A549 NSCLC): > 100 µM
TGI (OVCAR-5 ovarian): > 100 µM
TGI (RPMI-8226 leukemia): > 100 µM
TGI (COLO 205 colon): > 100 µM
TGI (IGROV1 ovarian): > 100 µM
TGI (UACC-62 melanoma): > 100 µM
TGI (UO-31 renal): > 100 µM
TGI (SN12C renal): > 100 µM
TGI (HL-60(TB) leukemia): > 100 µM
TGI (SNB-19 CNS): > 100 µM
TGI (SR leukemia): > 100 µM
TGI (SF-539 CNS): > 100 µM
TGI (NCI-H23 lung): > 100 µM
TGI (MALME-3M melanoma): > 100 µM
TGI (OVCAR-4 ovarian): > 100 µM
TGI (SF-268 CNS): > 100 µM
TGI (OVCAR-3 ovarian): > 100 µM
TGI (OVCAR-8 ovarian): > 100 µM
TGI (NCI-H460 lung): > 28.3 µM
TGI (SNB-75 CNS): > 100 µM
TGI (HOP-92 NSCLC): > 100 µM
TGI (MOLT-4 leukemia): > 100 µM
TGI (HOP-62 NSCLC): > 100 µM
TGI (TK-10 renal): > 100 µM
TGI (MCF7 breast): > 100 µM
TGI (MDA-MB-435): > 100 µM
TGI (SK-MEL-28 melanoma): > 100 µM
TGI (NCI-H522 lung): > 100 µM
TGI (NCI/ADR-RES ovarian): > 76.3 µM
TGI (ACHN renal): > 100 µM
TGI (PC-3 prostate): > 100 µM
TGI (UACC-257 melanoma): > 70 µM
TGI (NCI-H226 lung): 73.1 µM
TGI (HCT-116 colon): > 100 µM
TGI (HCC-2998 colon): > 100 µM
TGI (KM12 colon): > 100 µM
TGI (CAKI-1 renal): > 100 µM
TGI (M14 melanoma): > 100 µM
TGI (HS 578T breast): > 100 µM
TGI (786-0 renal): > 100 µM
TGI (K-562 leukemia): > 100 µM

CC(C)Oc1c(N(Cc2ccccc2)c2ccccc2C2SCCCS2)c(=O)c1=O
TGI (RXF 393 renal): > 100 µM
TGI (HCT-15 colon): > 56.5 µM
TGI (SK-OV-3 ovarian): > 73.4 µM
TGI (T-47D breast): > 100 µM
TGI (SF-295 CNS): 5.67 µM
TGI (CCRF-CEM leukemia): > 100 µM
TGI (EKVX NSCLC): > 100 µM
TGI (MDA-N): > 30.7 µM
TGI (SW-620 colon): 8.2 µM
TGI (MDA-MB-231 breast): > 56 µM
TGI (A498 renal): > 85.1 µM
TGI (BT-549 breast): > 100 µM
TGI (U251 CNS): > 100 µM
TGI (SK-MEL-5 melanoma): > 100 µM
TGI (DU-145 prostate): > 100 µM
TGI (HT29 colon): 6.78 µM
TGI (SK-MEL-2 melanoma): 20.1 µM
TGI (LOX IMVI melanoma): > 100 µM
TGI (A549 NSCLC): > 100 µM
TGI (OVCAR-5 ovarian): > 100 µM
TGI (RPMI-8226 leukemia): > 100 µM
TGI (COLO 205 colon): 21.5 µM
TGI (IGROV1 ovarian): > 32.8 µM
TGI (UACC-62 melanoma): > 100 µM
TGI (UO-31 renal): > 100 µM
TGI (SN12C renal): > 100 µM
TGI (HL-60(TB) leukemia): > 100 µM
TGI (SNB-19 CNS): > 100 µM
TGI (SR leukemia): > 100 µM
TGI (SF-539 CNS): 8 µM
TGI (NCI-H23 lung): > 47.5 µM
TGI (MALME-3M melanoma): > 100 µM
TGI (OVCAR-4 ovarian): > 100 µM
TGI (SF-268 CNS): > 100 µM
TGI (OVCAR-3 ovarian): 7.07 µM
TGI (OVCAR-8 ovarian): > 60.7 µM
TGI (NCI-H460 lung): > 60.8 µM
TGI (SNB-75 CNS): 7.22 µM
TGI (HOP-92 NSCLC): > 83.3 µM
TGI (MOLT-4 leukemia): > 100 µM
TGI (HOP-62 NSCLC): > 100 µM
TGI (TK-10 renal): > 100 µM
TGI (MCF7 breast): > 100 µM
TGI (MDA-MB-435): 10.3 µM
TGI (SK-MEL-28 melanoma): > 100 µM
TGI (NCI-H522 lung): 4.87 µM
TGI (NCI/ADR-RES ovarian): 4.7 µM
TGI (ACHN renal): > 100 µM
TGI (PC-3 prostate): 35.7 µM
TGI (UACC-257 melanoma): > 100 µM
TGI (NCI-H226 lung): > 28.2 µM
TGI (HCT-116 colon): 59.3 µM
TGI (HCC-2998 colon): 18.5 µM
TGI (KM12 colon): 35.9 µM
TGI (CAKI-1 renal): > 100 µM
TGI (M14 melanoma): 19.3 µM
TGI (HS 578T breast): 32.6 µM
TGI (786-0 renal): > 100 µM
TGI (K-562 leukemia): > 100 µM
